These results are taken from US9073907B2, “Thiazoles derivatives and their use as positive allosteric modulators of metabotropic glutamate receptors” (Addex Pharma S.A., priority 2009, dated 2015).

SMILES strings stand for the structures.

Consider `c1ccc(Nc2nc(-c3cn[nH]c3)c(N3CCOCC3)s2)nc1` [Compound 1-2, 5-Morpholino-4-(1H-pyrazol-4-yl)-N-(pyridin-2-yl)thiazol-2-amine], for which the melting point lay in the range of 230 to 231 °C.

The compound `c1ccc(Nc2nc(-c3cn[nH]c3)c(N3CCCCC3)s2)nc1` [Compound 1-4, 5-(Piperidin-1-yl)-4-(1H-pyrazol-4-yl)-N-(pyridin-2-yl)thiazol-2-amine] registered a melting point of 238 °C.

With `Cc1sc(Nc2ccccn2)nc1-c1cnn(S(=O)(=O)c2ccc(Cl)cc2)c1` [Compound 1-9, 4-(1-(4-Chlorophenylsulfonyl)-1H-pyrazol-4-yl)-5-methyl-N-(pyridin-2-yl)thiazol-2-amine], the melting point is 232 to 233 °C.

On to `Cc1cccc(Nc2nc(-c3cn[nH]c3)c(F)s2)n1` [Compound 1-11, 5-Fluoro-N-(6-methylpyridin-2-yl)-4-(1H-pyrazol-4-yl)thiazol-2-amine], for which the melting point is 204 °C.

On to `CN(C)c1sc(Nc2ccccn2)nc1-c1cn[nH]c1` [Compound 1-12, N^5,N^5-Dimethyl-4-(1H-pyrazol-4-yl)-N^2-(pyridin-2-yl)thiazole-2,5-diamine], for which the melting point stood at 232 °C.

`Fc1sc(Nc2cccc(Cl)n2)nc1-c1cn[nH]c1` [Compound 1-13, N-(6-Chloropyridin-2-yl)-5-fluoro-4-(1H-pyrazol-4-yl)thiazol-2-amine]: the melting point came to 239 °C.

`Cc1sc(Nc2cccc(I)n2)nc1-c1cn[nH]c1` [Compound 1-14, N-(6-Iodopyridin-2-yl)-5-methyl-4-(1H-pyrazol-4-yl)thiazol-2-amine] gave a melting point above 260 °C.

The compound `Cc1sc(Nc2ncccc2I)nc1-c1cn[nH]c1` [Compound 1-15, N-(3-Iodopyridin-2-yl)-5-methyl-4-(1H-pyrazol-4-yl)thiazol-2-amine] gave a melting point of 243 to 245 °C.

Turning to `Cc1sc(Nc2cc(F)ccn2)nc1-c1cn[nH]c1` [Compound 1-19, N-(4-Fluoropyridin-2-yl)-5-methyl-4-(1H-pyrazol-4-yl)thiazol-2-amine], the melting point was 283 °C.

`Cc1ccc(F)c(Nc2nc(-c3cn[nH]c3)c(C)s2)n1` [Compound 1-23, N-(3-Fluoro-6-methylpyridin-2-yl)-5-methyl-4-(1H-pyrazol-4-yl)thiazol-2-amine] yielded a melting point of 323 °C.

As to `COc1ccc(Nc2nc(-c3cn[nH]c3)c(C)s2)nc1` [Compound 1-24, N-(5-M ethoxypyridin-2-yl)-5-methyl-4-(1H-pyrazol-4-yl)thiazol-2-amine], the melting point came out at 229 °C.

`Fc1sc(Nc2cnccn2)nc1-c1cn[nH]c1` [Compound 1-25, 5-Fluoro-N-(pyrazin-2-yl)-4-(1H-pyrazol-4-yl)thiazol-2-amine] showed a melting point of 279 °C.

On to `Fc1ccc(Nc2nc(-c3cn[nH]c3)c(F)s2)nc1` [Compound 1-28, 5-Fluoro-N-(5-fluoropyridin-2-yl)-4-(1H-pyrazol-4-yl)thiazol-2-amine], for which the melting point came to 239 °C.

Regarding `Cc1cccc(Nc2nc(-c3cnn(C(N)=O)c3)c(F)s2)n1` [Compound 1-30, 4-(5-Fluoro-2-(6-methylpyridin-2-ylamino)thiazol-4-yl)-1H-pyrazole-1-carboxamide], the melting point is 209 °C.

As for `Cc1ccnc(Nc2nc(-c3cn[nH]c3)cs2)n1` [Compound 1-31, N-(4-Methylpyrimidin-2-yl)-4-(1H-pyrazol-4-yl)thiazol-2-amine], the melting point is 307 to 310 °C.

In turn, `Cc1ccnc(Nc2nc(-c3cn[nH]c3)c(C)s2)n1` [Compound 1-33, 5-Methyl-N-(4-methylpyrimidin-2-yl)-4-(1H-pyrazol-4-yl)thiazol-2-amine] yielded a melting point of 255 °C.

For the compound `Cc1cnc(Nc2nc(-c3cn[nH]c3)c(C)s2)nc1` [Compound 1-34, 5-Methyl-N-(5-methylpyrimidin-2-yl)-4-(1H-pyrazol-4-yl)thiazol-2-amine], the melting point is above 410 °C.

In turn, `Cc1sc(Nc2ccccn2)nc1-c1cnn(C(=O)N(C)C)c1` [Compound 1-36, N,N-Dimethyl-4-(5-methyl-2-(pyridin-2-ylamino)thiazol-4-yl)-1H-pyrazole-1-carboxamide] came in with a melting point of 181 to 185 °C.

The compound `c1ccc(-c2n[nH]cc2-c2csc(Nc3ccccn3)n2)cc1` [Compound 1-37, 4-(3-Phenyl-1H-pyrazol-4-yl)-N-(pyridin-2-yl)thiazol-2-amine] yielded a melting point of 229 to 231 °C.

In turn, `COCc1n[nH]cc1-c1csc(Nc2ccccn2)n1` [Compound 1-40, 4-(3-(Methoxymethyl)-1H-pyrazol-4-yl)-N-(pyridin-2-yl)thiazol-2-amine] came in with a melting point of 190 °C.

In turn, `Cc1nc(Nc2nc(-c3cn[nH]c3)cs2)cs1` [Compound 1-41, N-(2-Methylthiazol-4-yl)-4-(1H-pyrazol-4-yl)thiazol-2-amine] registered a melting point of 236 to 239 °C.

`c1csc(Nc2nc(-c3cn[nH]c3)cs2)n1` [Compound 1-42, 4-(1H-Pyrazol-4-yl)-N-(thiazol-2-yl)thiazol-2-amine] showed a melting point of 277 to 280 °C.

The compound `Cc1sc(Nc2cccc(CF)n2)nc1-c1cn[nH]c1` [Compound 1-43, N-(6-(Fluoromethyl)pyridin-2-yl)-5-methyl-4-(1H-pyrazol-4-yl)thiazol-2-amine] registered a melting point of 270 to 280 °C.

In turn, `Cc1sc(Nc2cccc(C(F)F)n2)nc1-c1cn[nH]c1` [Compound 1-44, N-(6-(Difluoromethyl)pyridin-2-yl)-5-methyl-4-(1H-pyrazol-4-yl)thiazol-2-amine] came in with a melting point of 269 to 271 °C.

`Clc1sc(Nc2ncccn2)nc1-c1cn[nH]c1` [Compound 1-45, 5-Chloro-4-(1H-pyrazol-4-yl)-N-(pyrimidin-2-yl)thiazol-2-amine] came in with a melting point of 310 to 313 °C.

In turn, `CCc1ccnc(Nc2nc(-c3cn[nH]c3)c(C)s2)n1` [Compound 1-46, N-(4-Ethylpyrimidin-2-yl)-5-methyl-4-(1H-pyrazol-4-yl)thiazol-2-amine] yielded a melting point of 223 to 225 °C.

As for `Cc1ccnc(Nc2nc(-c3cn[nH]c3)c(Cl)s2)n1` [Compound 1-49, 5-Chloro-N-(4-methylpyrimidin-2-yl)-4-(1H-pyrazol-4-yl)thiazol-2-amine], the melting point came out at 243 °C.

In turn, `CN1CCC(Nc2nc(-c3cn[nH]c3)cs2)C1=O` (centres unmarked) [Compound 1-50, 3-(4-(1H-Pyrazol-4-yl)thiazol-2-ylamino)-1-methylpyrrolidin-2-one] returned a melting point of 196 to 204 °C.

In the case of `Cc1sc(Nc2nccc(C(C)C)n2)nc1-c1cn[nH]c1` [Compound 1-52, N-(4-Isopropylpyrimidin-2-yl)-5-methyl-4-(1H-pyrazol-4-yl)thiazol-2-amine], the melting point was 249 to 252 °C.

`CC(=O)c1[nH]ncc1-c1csc(Nc2nccc(C)n2)n1` [Compound 1-54, 1-(4-(2-(4-Methylpyrimidin-2-ylamino)thiazol-4-yl)-1H-pyrazol-5-yl)ethanone] displayed a melting point of 305 to 310 °C.

Compound `Fc1cnc(Nc2nc(-c3cn[nH]c3)cs2)nc1` [Compound 1-55, N-(5-Fluoropyrimidin-2-yl)-4-(1H-pyrazol-4-yl)thiazol-2-amine] registered a melting point of 256 °C.

Consider `Cc1ccnc(Nc2nc(-c3c[nH]nc3N3CCCCC3)cs2)n1` [Compound 1-57, N-(4-Methylpyrimidin-2-yl)-4-(3-(piperidin-1-yl)-1H-pyrazol-4-yl)thiazol-2-amine], for which the melting point was determined as 256 °C.

In turn, `c1cnc(Nc2nc(-c3cn[nH]c3)cs2)nc1` [Compound 1-59, 4-(1H-Pyrazol-4-yl)-N-(pyrimidin-2-yl)thiazol-2-amine] yielded a melting point of 311 to 312 °C.

`Cc1ccnc(Nc2nc(-c3c[nH]nc3N3CCOCC3)cs2)n1` [Compound 1-60, N-(4-Methylpyrimidin-2-yl)-4-(3-morpholino-1H-pyrazol-4-yl)thiazol-2-amine]: the melting point turned out to be 260 °C.

The compound `Cc1sc(Nc2nccc(C3CC3)n2)nc1-c1cn[nH]c1` [Compound 1-62, N-(4-Cyclopropylpyrimidin-2-yl)-5-methyl-4-(1H-pyrazol-4-yl)thiazol-2-amine] gave a melting point of 228 to 231 °C.

In the case of `Cc1sc(Nc2ccccn2)nc1-c1cnn(C(=O)c2ccccn2)c1` [Compound 1-63, (4-(5-Methyl-2-(pyridin-2-ylamino)thiazol-4-yl)-1H-pyrazol-1-yl)(pyridin-2-yl)methanone], the melting point was in the range of 226 to 227 °C.

`O=C(c1[nH]ncc1-c1csc(Nc2ncccn2)n1)C1CC1` [Compound 1-66, Cyclopropyl(4-(2-(pyrimidin-2-ylamino)thiazol-4-yl)-1H-pyrazol-5-yl)methanone] returned a melting point of 244 °C.

Compound `CC(=O)c1[nH]ncc1-c1csc(Nc2ncccn2)n1` [Compound 1-67, 1-(4-(2-(Pyrimidin-2-ylamino)thiazol-4-yl)-1H-pyrazol-5-yl)ethanone] displayed a melting point of 287 °C.

The melting point is the temperature of the solid-liquid transition.
